Consider 37 compounds from patent US20230339886A1 (University of Florida Research Foundation, Incorporated, priority 2020, published 2023).

SMILES strings stand for the structures. A value given as a limit tells only on which side of the number the result lay.

T1 sequence (P20393 with tags, fused parts or gaps DEL324-422): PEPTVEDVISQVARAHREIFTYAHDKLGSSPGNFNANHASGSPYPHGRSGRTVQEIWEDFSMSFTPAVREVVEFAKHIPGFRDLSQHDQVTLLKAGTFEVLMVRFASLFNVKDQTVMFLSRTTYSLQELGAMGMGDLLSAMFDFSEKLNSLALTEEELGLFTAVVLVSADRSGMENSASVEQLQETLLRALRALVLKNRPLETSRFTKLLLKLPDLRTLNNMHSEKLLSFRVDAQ
T1 sequence (Q9Y618 2335-2356 partner limits assumed): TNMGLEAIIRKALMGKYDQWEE

The first test has as its target T1, REV-ERBα LBD (human; residues 281-614 Δ324-422) (Homo sapiens, UniProt P20393, DEL324-422).
T1 construct: 6×Histag-REV-ERBα LBD (human; residues 281-614 Δ324-422); made in house; host or cells: Escherichia coli
Description: TR-FRET corepressor interaction assay (REV-ERBα LBD, FITC-SMRT peptide). The format is biochemical. The following applies: FITC-SMRT peptide, read-out: REVERBα agonism (EC50 class, FRET assay). In a few lines: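 Compound serial dilutions (in DMSO, triplicate) incubated 2 h at 4 °C; Tb donor excited at 340 nm, emission read at 495 nm and FITC acceptor at 520 nm. TR-FRET ratio (520/495 nm) plotted against ligand concentration and fitted to a sigmoidal dose-response curve.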
Consider `CC(C)(C)Cn1cc([C@H](NS(=O)(=O)C2CCC2)C(F)F)c2ccc(-c3c(F)cccc3C(F)(F)F)cc21` [Example 527, (S)—N-(2,2-difluoro-1-(6-(2-fluoro-6-(trifluoromethyl)phenyl)-1-neopentyl-1H-indol-3-yl)ethyl)cyclobutanesulfonamide], for which the EC50 (commonly the concentration giving half of the maximal effect) is less than 500 nM.
Take `CCS(=O)(=O)NCCn1cc(CC(C)(C)C)c2cc(-c3ccc(C(F)(F)F)cc3C(F)(F)F)ccc21` [Example 502, N-(2-(5-(2,4-bis(trifluoromethyl)phenyl)-3-neopentyl-1H-indol-1-yl)ethyl)ethanesulfonamide]: the EC50 was less than 500 nM.
In the case of `CC(C)(C)Cn1cc([C@H](NS(=O)(=O)C2CC2)C(F)F)c2ccc(-c3ccccc3C(F)(F)F)cc21` [Example 541, (S)—N-(2,2-difluoro-1-(1-neopentyl-6-(2-(trifluoromethyl)phenyl)-1H-indol-3-yl)ethyl)cyclopropanesulfonamide], the concentration for a half-maximal effect (EC50) was less than 500 nM.
In the case of `Cc1ccc2c([C@H](NS(=O)(=O)C3CCC3)C(F)(F)F)cn(CC(C)(C)C)c2c1` [Example 500, (S)—N-(2,2,2-trifluoro-1-(6-methyl-1-neopentyl-1H-indol-3-yl)ethyl)cyclobutanesulfonamide], the EC50 is less than 500 nM.
Regarding `CC1(Cn2cc([C@H](NS(=O)(=O)C3CC3)C(F)(F)F)c3cc(F)c(-c4ccccc4C(F)(F)F)cc32)COC1` [Example 489, N-[(1S)-2,2,2-trifluoro-1-[5-fluoro-1-[(3-methyloxetan-3-yl)methyl]-6-[2-(trifluoromethyl)phenyl]indol-3-yl]ethyl]cyclopropanesulfonamide], the EC50 is less than 500 nM.

Staying with this test, now noted: Table 2, read-out: REVERBα agonism (EC50 class, FRET assay).
In the case of `CC(C)(C)Cn1cc([C@H](NS(=O)(=O)C2CC2)C(F)(F)F)c2cc(F)c(-c3cccc(F)c3C(F)(F)F)cc21` [Example 360, (S)—N-(2,2,2-trifluoro-1-(5-fluoro-6-(3-fluoro-2-(trifluoromethyl)phenyl)-1-neopentyl-1H-indol-3-yl)ethyl)cyclopropanesulfonamide], the EC50 was less than 500 nM.
On to `CC(C)(C)Cn1cc(CCNS(=O)(=O)C2CC2)c2ccc(-c3cccc(C(F)(F)F)c3C#N)cc21` [Example 399, N-(2-(6-(2-cyano-3-(trifluoromethyl)phenyl)-1-neopentyl-1H-indol-3-yl)ethyl)cyclopropanesulfonamide], for which the EC50 is more than 3000 nM.
For the compound `CC(C)Cn1cc(CCNS(=O)(=O)N(C)C)c2ccc(-c3ccncc3C(F)(F)F)cc21` [Compound 206, dimethyl({2-[1-(2-methylpropyl)-6-[3-(trifluoromethyl)pyridin-4-yl]-1H-indol-3-yl]ethyl}sulfamoyl)amine], the EC50 is less than 500 nM.
Consider `CC(C)Cn1cc(CCNS(=O)(=O)N(C)C)c2ccc(N(C)C)cc21` [Example 113, N′-{2-[6-N,N-dimethylamino-1-(2-methylpropyl)-1H-indol-3-yl]ethyl}-N,N-dimethylsulfuric diamide], for which the EC50 is 500 to 3000 nM.
Regarding `CC(C)S(=O)(=O)CCn1cc(CC(C)(C)C)c2cc(Br)ccc21` [Example 175, 5-bromo-1-(2-(isopropylsulfonyl)ethyl)-3-neopentyl-1H-indole], the EC50 is more than 3000 nM.
On to `CC(C)(C)Cc1cn(CCNS(=O)(=O)C2CC2)c2ccc(-c3ccccn3)cc12` [Example 304, N-(2-(3-neopentyl-5-(pyridin-2-yl)-1H-indol-1-yl)ethyl)cyclopropanesulfonamide], for which the EC50 is 500 to 3000 nM.
Turning to `N#CC1(Cn2cc([C@H](NS(=O)(=O)C3CCC3)C(F)(F)F)c3ccc(-c4ccccc4C(F)(F)F)nc32)CC1` [Example 414, (S)—N-(1-(1-((1-cyanocyclopropyl)methyl)-6-(2-(trifluoromethyl)phenyl)-1H-pyrrolo[2,3-b]pyridin-3-yl)-2,2,2-trifluoroethyl)cyclobutanesulfonamide], the EC50 is less than 500 nM.
Take `CC(C)Cn1cc(CCNS(=O)(=O)N(C)C)c2ccc(NC(=O)Cc3ccccc3)cc21` [Compound 70, N-(3-{2-[(dimethylsulfamoyl)amino]ethyl}-1-(2-methylpropyl)-1H-indol-6-yl)-2-phenylacetamide]: the half-maximal effective concentration (EC50) was more than 3000 nM.
With `CN(C)S(=O)(=O)NCCc1cn(Cc2cccc(C(F)(F)F)c2)c2cc(-c3ccncc3)ccc12` [Example 142, N-{2-[6-(pyridin-4-yl)-1-(3-trifluoromethylbenzyl)-1H-indol-3-yl]ethyl}-N,N-dimethyl-sulfuric diamide], the EC50 is 500 to 3000 nM.
As for `O=S(=O)(NCCc1cn(CC2CCCC2)c2cc(-c3ccncc3Cl)ccc12)C1CC1` [Compound 281], the EC50 was less than 500 nM.
As for `CC(C)Cn1cc(C(C)CNS(=O)(=O)C2CC2)c2ccc(-c3ccncc3)cc21` (stereo not shown) [Compound 253], the EC50 fell in the range of 500 to 3000 nM.
Consider `CC(C)Cn1cc(-c2cccc(NS(=O)(=O)C(C)C)c2)c2ccc(-c3ccccc3)cc21` [Example 83, N-(3-(1-isobutyl-6-phenyl-1H-indol-3-yl)phenyl)propane-2-sulfonamide], for which the EC50 was more than 3000 nM.
On to `CC(C)Cn1cc(-c2cccc(CNS(=O)(=O)C(C)C)c2)c2ccc(-c3ccccc3)cc21` [Example 86, N-(3-(1-isobutyl-6-phenyl-1H-indol-3-yl)benzyl)propane-2-sulfonamide], for which the EC50 lay in the range of 500 to 3000 nM.
The same measure, in the same setting: the result for `CC(C)Cn1cc(CCNS(=O)(=O)N(C)C)c2ccc(F)cc21` [Example 110, ({2-[6-fluoro-1-(2-methylpropyl)-1H-indol-3-yl]ethyl}sulfamoyl)dimethylamine] reads 500 to 3000 nM; that for `CC(C)(C)Cn1cc(CCNS(=O)(=O)C2CC2)c2ccc(-c3ccc(C(F)(F)F)cc3C#N)cc21` [Example 400, N-(2-(6-(2-cyano-4-(trifluoromethyl)phenyl)-1-neopentyl-1H-indol-3-yl)ethyl)cyclopropanesulfonamide], less than 500 nM; that for `CC(C)(C)Cn1cc([C@H](NS(=O)(=O)C2CC2)C(F)(F)F)c2ccc(-c3ccc(F)c(C#N)c3)cc21` [Example 387, (S)—N-(1-(6-(3-cyano-4-fluorophenyl)-1-neopentyl-1H-indol-3-yl)-2,2,2-trifluoroethyl)cyclopropanesulfonamide], 500 to 3000 nM.
On the same count and under the same terms, the result for `CC(C)Cn1cc(CCNS(=O)(=O)N(C)C)c2ccc(Br)cc21` [Compound 97, ({2-[6-bromo-1-(2-methylpropyl)-1H-indol-3-yl]ethyl}sulfamoyl)dimethylamine] reads less than 500 nM; that for `CC(C)Cc1cn(C2CCN(S(=O)(=O)C(C)C)C2)c2ccc(-c3ccncc3)cc12` (stereo not shown) [Compound 44], 500 to 3000 nM; that for `CC(C)(C)Cn1cc(CCNS(=O)(=O)C2CC2)c2cc(F)c(-c3ccccc3C(F)(F)F)cc21` [Compound 287], less than 500 nM.
Same read-out and setting: next, `CC(C)Cn1cc(C(NS(=O)(=O)C2CC2)C(F)(F)F)c2ccc(-c3ccccc3C(F)(F)F)cc21` (stereo not shown) [Example 208]: less than 500 nM; `CN(C)S(=O)(=O)N(C)CCc1cn(C)c2cc(-c3ccncc3)ccc12` [Example 127, N′-{2-[6-(pyridin-4-yl)-1-methyl-1H-indol-3-yl]ethyl}-N′-methyl-N,N-dimethylsulfuric diamide]: 500 to 3000 nM; `CC(C)Cn1cc(CCNS(=O)(=O)N(C)C)c2ccc(-c3cccc([N+](=O)[O-])c3)cc21` [Example 49, N-{2-[6-(3-nitrophenyl)-1-(2-methylpropyl)-1H-indol-3-yl]ethyl}-N,N-dimethylsulfuric diamide]: less than 500 nM.
Regarding `CC(C)(C)Cn1cc([C@H](NS(=O)(=O)N2CCCC2)C(F)(F)F)c2cc(F)c(-c3ccccc3C(F)(F)F)cc21` [Example 347, (S)—N-(2,2,2-trifluoro-1-(5-fluoro-1-neopentyl-6-(2-(trifluoromethyl)phenyl)-1H-indol-3-yl)ethyl)pyrrolidine-1-sulfonamide], the EC50 is less than 500 nM.
For `CC(C)Cn1cc(CC(N(C)S(=O)(=O)C(C)C)C(F)(F)F)c2ccc(-c3ccncc3)cc21` (stereo not shown) [Compound 274], the EC50 was more than 3000 nM.
Same read-out and setting: next, `CC(C)Cn1cc(CC(C)N(C)S(=O)(=O)C(C)C)c2ccc(-c3ccncc3)cc21` (stereo not shown) [Compound 276]: less than 500 nM.
As to `CN(C)CCn1cc(CCNS(=O)(=O)N(C)C)c2ccc(Br)cc21` [Example 160, [2-(6-bromo-3-{2-[(dimethylsulfamoyl)amino]ethyl}-1H-indol-1-yl)ethyl]dimethylamine], the EC50 is more than 3000 nM.
As to `CC(C)(C)Cn1cc([C@H](NS(=O)(=O)C(C)(C)C)C(F)(F)F)c2cc(F)c(-c3ccccc3C(F)(F)F)cc21` [Example 366, (S)-2-methyl-N-(2,2,2-trifluoro-1-(5-fluoro-1-neopentyl-6-(2-(trifluoromethyl)phenyl)-1H-indol-3-yl)ethyl)propane-2-sulfonamide], the concentration giving a half-maximal response (EC50) lay in the range of 500 to 3000 nM.
Turning to `CC(C)Cn1cc(CCNS(=O)(=O)C(C)C)c2cc(F)c(-c3ccccc3)cc21` [Compound 261], the EC50 was less than 500 nM.
As to `CC(C)Cn1cc(CNS(=O)(=O)C2CCCC2)c2ccc(-c3ccncc3)cc21` [Compound 243], the EC50 was less than 500 nM.
Turning to `CC(=O)n1cc(CCNS(=O)(=O)N(C)C)c2ccc(-c3ccncc3)cc21` [Compound 42, 1-(3-{2-[(dimethylsulfamoyl)amino]ethyl}-6-(pyridin-4-yl)-1H-indol-1-yl)ethan-1-one], the EC50 was more than 3000 nM.
The same measure, in the same setting: the result for `Cc1ccc(-c2ccc3c(CCS(=O)(=O)C4CC4)cn(CC(C)(C)C)c3c2)c(C(F)(F)F)c1` [Example 408, 3-(2-(cyclopropylsulfonyl)ethyl)-6-(4-methyl-2-(trifluoromethyl)phenyl)-1-neopentyl-1H-indole] reads less than 500 nM; that for `CC(C)Cn1cc(CCN(C)S(=O)(=O)N(C)C)c2ccc(Br)cc21` [Compound 123, ({2-[6-bromo-1-(2-methylpropyl)-1H-indol-3-yl]ethyl}(methyl)sulfamoyl)dimethylamine], 500 to 3000 nM.
